Data taken from patent US20250271421A1, “KIT FOR QUANTITATIVE ANALYSIS OF C-REACTIVE PROTEIN, METHOD FOR QUANTITATIVE ANALYSIS OF C-REACTIVE PROTEIN, AND APPARATUS FOR PERFORMING THE SAME” (I-sens, Inc., priority 2024, published 2025).

Legend:
[1] = test system: immune reaction between CRP and Anti-CRP antibodies; test: Evaluation of antigen-antibody reactivity by hemolytic reagents (second absorbance, 7-Level CRP Serum Samples)
Experimental: The concentrations of each candidate hemolytic reagent were determined as follows Table 2, taking into account the sample influence, including hematocrit.
Furthermore, each candidate hemolytic reagent was applied to 7-Level CRP Serum Samples, followed by an immune reaction between the hemolyzed samples and latex particles coated with Anti-CRP antibodies. Specifically, latex particles coated with Anti-CRP antibodies supplied by RANDOX were concentrated and stabilized with the addition of a stabilizer. The immune reaction was configured to occur between the hemolyzed samples and the latex particles coated with Anti-CRP antibodies.
After the immune reaction, the absorbance of each sample after the immune reaction (referred to as the second absorbance or second turbidity) was measured. Specifically, the second absorbance of the samples was measured at a wavelength of 750 nm using the A1Care Analyzer by i-SENS, Inc.
As for the control group, the experiment was designed to measure the second absorbance after the immune reaction between the 7-Level CRP Serum Samples without the addition of any hemolytic reagent and the latex particles coated with Anti-CRP antibodies. Additionally, the concentrations of the 7-Level CRP Serum Samples were varied from 0 to 195.8 mg/L, and the second absorbance was measured for each sample.

[2] = test system: blood cells in fresh venous whole blood samples (HCT 48%); test: Evaluation of hemolytic effect of hemolytic reagents (first absorbance/turbidity); assay type: cell-based; settings: for first absorbance: 750 nm, below 0.05 = hemolytic effect; for hemolytic effects on the blood cells in the blood sample: in most concentration ranges
Experimental: To select hemolytic reagents with a hemolytic effect capable of lysing the blood cells in a blood sample, five candidate hemolytic reagents were selected. Each candidate hemolytic reagent was applied to fresh venous whole blood samples (HCT 48%). The background measurement values (i.e., the first turbidity or first absorbance) of samples treated with each candidate hemolytic reagent were measured. Specifically, the first absorbance of the samples was measured at a wavelength of 750 nm using the A1Care Analyzer by i-SENS, Inc.
The five candidate hemolytic reagents are listed below Table 1. […] A candidate hemolytic reagent was evaluated to have a hemolytic effect on the blood sample if the first turbidity of the sample was below 0.05.

[3] = test system: immunoreagent (R2) containing Anti-CRP antibodies (latex particles coated with Anti-CRP antibodies); test: Accelerated stability by stabilizers (2), 50° C., 7 days, 3-Level CRP Serum Samples; assay type: physicochemical; settings: 100 mM
Experimental: To select a stabilizer for ensuring the storage stability of the immunoreagent (R2) containing Anti-CRP antibodies, two candidate stabilizers (Trehalose and Sucrose) with confirmed through Experimental Example 4 storage stability effects were prepared. Each candidate stabilizer was added to latex particles coated with Anti-CRP antibodies and dried. The reagent solution and 3-Level CRP Serum Samples (CRP 10 mg/L, 50 mg/L, 150 mg/L) were added to the dried compositions, and the immune reaction between CRP and Anti-CRP antibodies was carried out. After the immune reaction, the absorbance was measured to obtain the baseline measurement value of storage on day 0.
Each candidate stabilizer was added to latex particles coated with Anti-CRP antibodies, and the dried compositions were stored in an oven at 50° C. The reagent solution was stored separately under refrigeration. At 1-day intervals over a period of 7 days, the reagent solution and 3-Level CRP Serum Samples (CRP 10 mg/L, 50 mg/L, 150 mg/L) were added to the dried compositions containing each candidate stabilizer. The immune reaction between CRP and Anti-CRP antibodies was conducted, and the absorbance after the immune reaction was measured to obtain the measurement values for storage days 1, 2, 3, 4, 5, 6, and 7.
Based on the baseline measurement value and the measurement values obtained during the storage period, deviations (Bias) were calculated.
Additionally, for each condition, the experiment was repeated 5 times, and precision (CV) was calculated.
The two candidate stabilizers are listed below Table 5, and stabilizers with deviations (Bias) measured within 20% throughout the storage period were evaluated as effective for ensuring the storage stability of the immunoreagent (R2). Stabilizers with precision (CV) measured within 10% were evaluated as having excellent precision.

[4] = test system: immunoreagent (R2) containing Anti-CRP antibodies (latex particles coated with Anti-CRP antibodies); test: Accelerated stability by stabilizers (1), 50° C., 7 days, 1-Level CRP Serum Sample; assay type: physicochemical; settings: stabilizer concentrations as in Table 4
Experimental: To select a stabilizer that ensures the storage stability of the immunoreagent (R2) containing Anti-CRP antibodies, five candidate stabilizers were chosen. Each candidate stabilizer was added to latex particles coated with Anti-CRP antibodies and dried. The reagent solution and 1-Level CRP Serum Sample (CRP 60 mg/L) were added to the dried composition to facilitate the immune reaction between CRP and Anti-CRP antibodies. After the immune reaction, the absorbance was measured to obtain the baseline measurement value for storage on day 0. […]
Furthermore, the dried compositions, containing each candidate stabilizer added to latex particles coated with Anti-CRP antibodies, were stored in an oven at 50° C. […] The immune reaction between CRP and Anti-CRP antibodies was carried out, and the absorbance after the immune reaction was measured to obtain the measurement values for storage days 1, 2, 3, 4, 5, 6, and 7.
As for the control group, the experiment was configured to measure the absorbance after the immune reaction between the 1-Level CRP Serum Sample (CRP 60 mg/L) without the addition of any stabilizer and latex particles coated with Anti-CRP antibodies.
Furthermore, deviations (Bias) were calculated based on the baseline measurement value and the measurement values obtained over the storage period. […]

[5] = CRP Serum (50 mg/L, Mid), up to storage day 7
[6] = CRP Serum (150 mg/L, High), up to storage day 7

Compound	hemolytic effects on the blood cells in the blood sample [2]	deviation (Bias) compared to baseline on day 0 [3, 5]	deviation (Bias) compared to baseline on day 0 [3, 6]	dissolution of the dried Anti-CRP antibodies (visually confirmed) [4]	also measured
CCCCCCCCCCCCCC(=O)NCCC[N+](C)(C)CCCS(=O)(=O)[O-] [ASB-14]	exhibited hemolytic effects				decrease of absorbance corresponding to the CRP concentration compared to the control group ([1]; 750 nm, 0.05% ASB-14, CRP serum 0 to 195.8 mg/L): ≥ 50%; first absorbance ([2]; reagent concentration range 0.01-0.03 (w/v %)): greater than 0.05; first absorbance ([2]; reagent concentration range 0.04-0.20 (w/v %)): less than 0.05
OC[C@H]1O[C@@](CO)(O[C@H]2O[C@H](CO)[C@@H](O)[C@H](O)[C@H]2O)[C@@H](O)[C@@H]1O [Sucrose]		≤ 20%	≤ 20%	dissolved properly	deviation (Bias) compared to baseline on day 0 ([3]; CRP Serum (10 mg/L, Low), up to storage day 7): ≤ 20%
OC[C@H]1O[C@H](O[C@H]2O[C@H](CO)[C@@H](O)[C@H](O)[C@H]2O)[C@H](O)[C@@H](O)[C@@H]1O [Trehalose]		≤ 20%	≤ 20%	dissolved properly	deviation (Bias) compared to baseline on day 0 ([3]; CRP Serum (10 mg/L, Low), storage days 5 and 7): > 20%
Sodium deoxycholate [SDC]	exhibited hemolytic effects				effect of the hemolytic reaction on the antigen-antibody reaction between CRP and Anti-CRP antibodies ([1]; 0.13% SDC, 0.03% Saponin): did not affect the antigen-antibody reaction; first absorbance ([2]; reagent concentration range 0.10-0.11 (w/v %)): greater than 0.05; first absorbance ([2]; reagent concentration range 0.12-0.20 (w/v %)): less than 0.05
